In patent US7129078B2, “DNA encoding androgen receptor fragment” (University of North Carolina at Chapel Hill, priority 1988, dated 2006):

Molecular target: T1, steroid-binding domain of hAR (human androgen receptor) expressed from cDNA fragment (Homo sapiens, UniProt P10275)
T1 sequence (P10275 669-900 limits assumed): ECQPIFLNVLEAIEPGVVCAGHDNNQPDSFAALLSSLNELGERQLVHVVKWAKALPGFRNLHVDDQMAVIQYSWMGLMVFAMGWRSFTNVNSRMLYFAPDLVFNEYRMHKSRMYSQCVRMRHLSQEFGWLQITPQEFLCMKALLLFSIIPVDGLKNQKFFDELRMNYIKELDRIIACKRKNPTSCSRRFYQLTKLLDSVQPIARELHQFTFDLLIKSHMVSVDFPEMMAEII
Conditions: unlabeled steroid at 10- and 100-fold excess over 5 nM [3H]dihydrotestosterone

For `C[C@]12CCC(=O)C=C1CC[C@@H]1[C@@H]2[C@@H](O)C[C@@]2(C)[C@H]1CC[C@]2(O)C(=O)CO` [cortisol], the “steroid specificity (relative affinity)” value was “low affinity”.
